Earlier results in patent US20080213192A1, “AEROSOL LOTION FORMULATIONS” (Schering-Plough Healthcare Products, Inc., priority 2006, published 2008).

Details: Raval and Parrott, J. Pharm. Sci. 1967

- pH above which methylparaben hydrolyzes: > 6
SMILES: COC(=O)c1ccc(O)cc1 [methylparaben]
